# Test system: IL-12 induced STAT4 phosphorylation mediated by TYK2/JAK2
# Test: IL-12 induced pSTAT4 in human PBMC
# Type: cell-based
# Settings: 1 hr compound, 1.7 ng/mL IL-12 for 30 minutes
# Method: Human PBMC were isolated from buffy coat and are stored frozen for assays as needed. […] 15 μL of compound or DMSO was added to the well at the desired concentrations and incubated at 1 hr at 37° C. 15 μL of stimulus (final concentration of 1.7 ng/mL IL-12) was added for 30 minutes prior to pSTAT4 and total STAT4 analysis using cell lysates prepared and analyzed by MSD reagents as per manufacturer protocol. The final DMSO concentration of compound in the assay was 0.1%. The IL-12 induced pSTAT4 assay evaluates the inhibition of IL-12 induced STAT4 phosphorlyation mediated by TYK2/JAK2 ([…] complex).
row,SMILES,IC50 [µM]
1,CNc1cc(Nc2cccn([C@H]3C[C@H](OC)C3)c2=O)nc2c(C(=O)NC3CC[C@@H]3F)cnn12 (mixture of isomers) [Compound I-176],< 0.1
2,CNc1cc(Nc2cccn(C3COC3)c2=O)nc2c(C(=O)N[C@@H]3C[C@@H]3F)cnn12 [Compound I-125],< 0.1
3,CNc1cc(Nc2cccn([C@H]3CCC[C@@](C)(O)C3)c2=O)nc2c(C(=O)N[C@@H]3C[C@@H]3F)cnn12 [Compound I-129],< 0.1
4,CNc1cc(Nc2cccn(C3CCC[C@@](C)(OC)C3)c2=O)nc2c(C(=O)N[C@@H]3C[C@@H]3F)cnn12 (some centres unmarked) [Compound I-130],< 0.1
5,CNc1cc(Nc2cccn([C@@H]3CCC[C@](C)(OC)C3)c2=O)nc2c(C(=O)N[C@@H]3C[C@@H]3F)cnn12 [Compound I-131],< 0.1
6,CNc1cc(Nc2cccn([C@H]3C[C@H](F)C3)c2=O)nc2c(C(=O)N[C@H]3C[C@@H]3OC)cnn12 [Compound I-138],< 0.1
7,CNc1cc(Nc2cccn(C3CC(F)(F)C3)c2=O)nc2c(C(=O)N[C@@H]3C[C@H]3OC)cnn12 [Compound I-139],< 0.1
8,CNc1cc(Nc2cccn([C@H]3[C@@H]4COC[C@@H]43)c2=O)nc2c(C(=O)NC3CCC3)cnn12 [Compound I-142],< 0.1
9,CNc1cc(Nc2cccn([C@H]3C[C@@H]3F)c2=O)nc2c(C(=O)N[C@H]3CC[C@@H]3F)cnn12 [Compound I-149],< 0.1
10,CNc1cc(Nc2cccn([C@@H]3C[C@H]3F)c2=O)nc2c(C(=O)NC3CC[C@@H]3F)cnn12 (some centres unmarked) [Compound I-151],< 0.1
11,CNc1cc(Nc2cccn([C@@H]3C[C@H]3OC)c2=O)nc2c(C(=O)N[C@H]3CC[C@@H]3F)cnn12 [Compound I-155],< 0.1
12,CNc1cc(Nc2cccn(C3COC3)c2=O)nc2c(C(=O)N[C@@H]3CC[C@@H]3F)cnn12 [Compound I-162],< 0.1
13,CNc1cc(Nc2cccn([C@H]3C[C@H](F)C3)c2=O)nc2c(C(=O)N[C@H]3CC[C@@H]3F)cnn12 [Compound I-165],< 0.1
14,CNc1cc(Nc2cccn([C@H]3CC[C@H]3O)c2=O)nc2c(C(=O)N[C@@H]3CC[C@H]3F)cnn12 [Compound I-169],< 0.1
15,CNc1cc(Nc2cccn([C@H]3C[C@H](OC)C3)c2=O)nc2c(C(=O)N[C@@H]3CC[C@H]3F)cnn12 [Compound I-178],< 0.1
16,CNc1cc(Nc2cccn([C@@H]3CCC[C@@H]3O)c2=O)nc2c(C(=O)NC3CC[C@@H]3F)cnn12 (some centres unmarked) [Compound I-179],< 0.1

row,SMILES,IC50 [µM]
1,CNc1cc(Nc2cccn([C@@H]3CCC[C@@H]3O)c2=O)nc2c(C(=O)N[C@@H]3CC[C@H]3F)cnn12 [Compound I-181],< 0.1
2,CNc1cc(Nc2cccn(C3CCOCC3)c2=O)nc2c(C(=O)NC3CC[C@@H]3F)cnn12 (some centres unmarked) [Compound I-188],< 0.1
3,CNc1cc(Nc2cccn(C3CCOCC3)c2=O)nc2c(C(=O)NC3CC[C@H]3F)cnn12 (some centres unmarked) [Compound I-191],< 0.1
4,CNc1cc(Nc2cccn([C@H]3CCCOC3)c2=O)nc2c(C(=O)NC3CC[C@@H]3F)cnn12 (some centres unmarked) [Compound I-197],< 0.1
5,CNc1cc(Nc2cccn([C@H]3CCCOC3)c2=O)nc2c(C(=O)N[C@H]3CC[C@@H]3F)cnn12 [Compound I-198],< 0.1
6,CNc1cc(Nc2cccn(-c3ccccn3)c2=O)nc2c(C(=O)NC3CC[C@@H]3F)cnn12 (some centres unmarked) [Compound I-200],< 0.1
7,CNc1cc(Nc2cccn([C@H]3[C@@H]4COC[C@@H]43)c2=O)nc2c(C(=O)NC3CC[C@H]3F)cnn12 (some centres unmarked) [Compound I-203],< 0.1
8,CNc1cc(Nc2cccn([C@@H]3CCCC[C@@H]3O)c2=O)nc2c(C(=O)N[C@@H]3CC[C@H]3F)cnn12 [Compound I-211],< 0.1
9,CNc1cc(Nc2cccn([C@H]3CCCC[C@H]3O)c2=O)nc2c(C(=O)N[C@@H]3CC[C@H]3F)cnn12 [Compound I-214],< 0.1
10,CNc1cc(Nc2cccn([C@@H]3CCOC[C@@H]3OC)c2=O)nc2c(C(=O)N[C@@H]3CC[C@H]3F)cnn12 [Compound I-217],< 0.1
11,CNc1cc(Nc2cccn([C@H]3CC[C@H](OC)CC3)c2=O)nc2c(C(=O)N[C@H]3CC[C@@H]3F)cnn12 [Compound I-225],< 0.1
12,CNc1cc(Nc2cccn([C@@H]3CCC[C@@H](OC)C3)c2=O)nc2c(C(=O)NC3CC[C@@H]3F)cnn12 (some centres unmarked) [Compound I-227],< 0.1
13,CNc1cc(Nc2cccn([C@@H]3CCC[C@@H](OC)C3)c2=O)nc2c(C(=O)N[C@H]3CC[C@@H]3F)cnn12 [Compound I-228],< 0.1
14,CNc1cc(Nc2cccn([C@H]3CCC[C@H](OC)C3)c2=O)nc2c(C(=O)NC3CC[C@@H]3F)cnn12 (some centres unmarked) [Compound I-230],< 0.1
15,CNc1cc(Nc2cccn([C@H]3CCC[C@H](OC)C3)c2=O)nc2c(C(=O)N[C@H]3CC[C@@H]3F)cnn12 [Compound I-231],< 0.1
16,CNc1cc(Nc2cccn([C@@H]3CCOC[C@@H]3OC)c2=O)nc2c(C(=O)N[C@@H]3CC[C@@H]3F)cnn12 [Compound I-235],< 0.1

# Now from value to molecule:
row,IC50 [µM],SMILES
1,< 0.1,CNc1cc(Nc2cccn(C(C)C)c2=O)nc2c(C(=O)NC3CC[C@@H]3F)cnn12 (mixture of isomers) [Compound I-145]
2,< 0.1,CNc1cc(Nc2cccn([C@H]3C[C@@H](OC)C3)c2=O)nc2c(C(=O)NC3CC[C@@H]3F)cnn12 (mixture of isomers) [Compound I-173]
3,< 0.1,"CNc1cc(Nc2cccn(C3[C@H]4COC[C@@H]34)c2=O)nc2c(C(=O)NC3C[C@H]3OC)cnn12 (mixture of isomers) [I-24, 5-((1-((1R,5S,6r)-3-Oxabicyclo[3.1.0]hexan-6-yl)-2-oxo-1,2-dihydropyridin-3-yl)amino)-N-(2-methoxycyclopropyl)-7-(methylamino)pyrazolo[1,5-a]pyrimidine-3-carboxamide]"
4,< 0.1,CNc1cc(Nc2cccn([C@@H]3CCC[C@](C)(OC)C3)c2=O)nc2c(C(=O)NC3CC3)cnn12 [Compound I-124]
5,< 0.1,CNc1cc(Nc2cccn([C@H]3C[C@@H]3F)c2=O)nc2c(C(=O)N[C@@H]3C[C@H]3OC)cnn12 [Compound I-133]
6,< 0.1,CNc1cc(Nc2cccn([C@@H]3C[C@H]3F)c2=O)nc2c(C(=O)N[C@@H]3C[C@H]3OC)cnn12 [Compound I-135]
7,< 0.1,CNc1cc(Nc2cccn([C@H]3C[C@H](OC)C3)c2=O)nc2c(C(=O)NC3CCC3)cnn12 [Compound I-141]
8,< 0.1,CNc1cc(Nc2cccn(C3CCOCC3)c2=O)nc2c(C(=O)NC3CCC3)cnn12 [Compound I-143]
9,< 0.1,CNc1cc(Nc2cccn(-c3ocnc3C)c2=O)nc2c(C(=O)NC3CCC3)cnn12 [Compound I-144]
10,< 0.1,CNc1cc(Nc2cccn(C(C)C)c2=O)nc2c(C(=O)N[C@@H]3CC[C@H]3F)cnn12 [Compound I-147]
11,< 0.1,CNc1cc(Nc2cccn([C@H]3C[C@@H]3OC)c2=O)nc2c(C(=O)N[C@H]3CC[C@@H]3F)cnn12 [Compound I-158]
12,< 0.1,CNc1cc(Nc2cccn(C3COC3)c2=O)nc2c(C(=O)NC3CC[C@H]3F)cnn12 (some centres unmarked) [Compound I-160]
13,< 0.1,CNc1cc(Nc2cccn(C3COC3)c2=O)nc2c(C(=O)NC3CC[C@@H]3F)cnn12 (some centres unmarked) [Compound I-163]
14,< 0.1,CNc1cc(Nc2cccn([C@H]3C[C@H](F)C3)c2=O)nc2c(C(=O)NC3CC[C@@H]3F)cnn12 (some centres unmarked) [Compound I-164]
15,< 0.1,CNc1cc(Nc2cccn([C@H]3CC[C@H]3O)c2=O)nc2c(C(=O)NC3CC[C@@H]3F)cnn12 (some centres unmarked) [Compound I-167]
16,< 0.1,CNc1cc(Nc2cccn([C@H]3C[C@@H](OC)C3)c2=O)nc2c(C(=O)N[C@H]3CC[C@@H]3F)cnn12 [Compound I-174]
17,< 0.1,CNc1cc(Nc2cccn(-c3ocnc3C)c2=O)nc2c(C(=O)NC3CC[C@@H]3F)cnn12 (some centres unmarked) [Compound I-185]
18,< 0.1,CNc1cc(Nc2cccn(-c3ocnc3C)c2=O)nc2c(C(=O)N[C@H]3CC[C@@H]3F)cnn12 [Compound I-186]
19,< 0.1,CNc1cc(Nc2cccn(C3CCOCC3)c2=O)nc2c(C(=O)N[C@@H]3CC[C@H]3F)cnn12 [Compound I-190]
20,< 0.1,CNc1cc(Nc2cccn(C3CCOCC3)c2=O)nc2c(C(=O)N[C@H]3CC[C@H]3F)cnn12 [Compound I-192]
21,< 0.1,CNc1cc(Nc2cccn(C3CCOCC3)c2=O)nc2c(C(=O)N[C@@H]3CC[C@@H]3F)cnn12 [Compound I-193]
22,< 0.1,CNc1cc(Nc2cccn([C@@H]3CCCOC3)c2=O)nc2c(C(=O)NC3CC[C@@H]3F)cnn12 (some centres unmarked) [Compound I-194]
23,< 0.1,CNc1cc(Nc2cccn([C@@H]3CCCOC3)c2=O)nc2c(C(=O)N[C@@H]3CC[C@H]3F)cnn12 [Compound I-196]
24,< 0.1,CNc1cc(Nc2cccn(-c3ccccn3)c2=O)nc2c(C(=O)N[C@H]3CC[C@@H]3F)cnn12 [Compound I-201]
25,< 0.1,CNc1cc(Nc2cccn([C@H]3[C@@H]4COC[C@@H]43)c2=O)nc2c(C(=O)N[C@H]3CC[C@H]3F)cnn12 [Compound I-204]
26,< 0.1,CNc1cc(Nc2cccn([C@H]3[C@@H]4COC[C@@H]43)c2=O)nc2c(C(=O)N[C@@H]3CC[C@@H]3F)cnn12 [Compound I-205]
27,< 0.1,CNc1cc(Nc2cccn([C@H]3[C@@H]4COC[C@@H]43)c2=O)nc2c(C(=O)NC3CC[C@@H]3F)cnn12 (some centres unmarked) [Compound I-206]
28,< 0.1,CNc1cc(Nc2cccn([C@H]3[C@@H]4COC[C@@H]43)c2=O)nc2c(C(=O)N[C@@H]3CC[C@H]3F)cnn12 [Compound I-208]
29,< 0.1,CNc1cc(Nc2cccn([C@@H]3CCCC[C@@H]3O)c2=O)nc2c(C(=O)NC3CC[C@@H]3F)cnn12 (some centres unmarked) [Compound I-209]
30,< 0.1,CNc1cc(Nc2cccn([C@H]3CC[C@H](OC)CC3)c2=O)nc2c(C(=O)NC3CC[C@@H]3F)cnn12 (some centres unmarked) [Compound I-224]
